Target: T1, 10-formyltetrahydrofolate dehydrogenase (FDH) (Rattus norvegicus, UniProt P28037)
T1 sequence (P28037 1-902): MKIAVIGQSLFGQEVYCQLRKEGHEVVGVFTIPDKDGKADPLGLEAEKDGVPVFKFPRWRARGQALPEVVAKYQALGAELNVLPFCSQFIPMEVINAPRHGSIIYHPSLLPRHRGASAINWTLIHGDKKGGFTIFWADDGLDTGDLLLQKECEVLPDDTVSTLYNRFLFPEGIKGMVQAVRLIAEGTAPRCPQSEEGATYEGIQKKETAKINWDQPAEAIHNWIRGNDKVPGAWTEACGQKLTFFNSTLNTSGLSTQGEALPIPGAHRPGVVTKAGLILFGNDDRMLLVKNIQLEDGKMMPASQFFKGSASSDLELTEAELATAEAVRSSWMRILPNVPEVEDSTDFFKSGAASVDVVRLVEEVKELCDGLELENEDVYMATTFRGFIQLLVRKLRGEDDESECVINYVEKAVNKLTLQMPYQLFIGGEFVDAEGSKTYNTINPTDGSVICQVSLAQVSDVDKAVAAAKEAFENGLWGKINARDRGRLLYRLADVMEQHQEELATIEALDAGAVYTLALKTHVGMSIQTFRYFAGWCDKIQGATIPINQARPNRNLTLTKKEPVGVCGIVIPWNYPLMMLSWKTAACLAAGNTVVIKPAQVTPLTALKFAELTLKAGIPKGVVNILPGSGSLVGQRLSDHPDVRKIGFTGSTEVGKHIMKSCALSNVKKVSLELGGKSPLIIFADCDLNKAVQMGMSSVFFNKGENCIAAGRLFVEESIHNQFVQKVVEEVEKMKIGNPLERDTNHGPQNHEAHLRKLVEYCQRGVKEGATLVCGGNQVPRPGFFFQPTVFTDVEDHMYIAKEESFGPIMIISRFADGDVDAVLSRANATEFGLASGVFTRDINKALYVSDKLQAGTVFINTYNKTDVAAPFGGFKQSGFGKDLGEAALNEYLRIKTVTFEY
Assay: THF formation at […] nm with NADP+, hydrolytic rate subtracted
Type: biochemical

IC50: 4 mM
Compound: CC=O [acetaldehyde]

— article PMC2788200 (Nutrition Research and Practice, 2008)
